Assay results reported in patent US20050112573A1, “Method of detecting toxic substance” (priority 2001, published 2005).

Test system: yeast genes (level of expressed mRNA)
Assay: DNA chip analysis of expressed mRNA of yeast genes after 2 h culture with a toxic chemical substance
Assay type: cell-based, Saccharomyces cerevisiae S288C
Summary of the method: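 S. cerevisiae S288C grown at 25° C in YPD; toxicant added at log phase at growth-inhibitory, non-lethal levels for 2 h, untreated cells as control. Poly(A) mRNA reverse-transcribed with Cy3/Cy5-dUTP, hybridized to whole-genome chip at 65° C >12 h; value is fluorescence ratio versus untreated.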

CCCCC[C@H](O)CC(=O)CCc1ccc(O)c(OC)c1 [(13), gingerol]
0.2: level of expressed mRNA in the presence of chemical substance/in its absence (gene YLR300W)
1.6: level of expressed mRNA in the presence of chemical substance/in its absence (gene YJR142W) | The level of expressed mRNA in the presence of chemical substance/absence: YML079W (gene YML079W) | The level of expressed mRNA in the presence of chemical substance/absence: YMR160W (gene YMR160W) | The level of expressed mRNA in the presence of chemical substance/absence: YMR258C (gene YMR258C) | level of expressed mRNA in the presence of chemical substance/in its absence (gene YOR099W)
2.0: The level of expressed mRNA in the presence of chemical substance/absence: YJR044C (gene YJR044C) | The level of expressed mRNA in the presence of chemical substance/absence: YML029W (gene YML029W) | The level of expressed mRNA in the presence of chemical substance/absence: YNL265C (gene YNL265C)
1.1: The level of expressed mRNA in the presence of chemical substance/absence: YHL006C (gene YHL006C) | level of expressed mRNA in the presence of chemical substance/in its absence (gene YHR037W) | The level of expressed mRNA in the presence of chemical substance/absence: YHR083W (gene YHR083W) | level of expressed mRNA in the presence of chemical substance/in its absence (gene YIR035C) | The level of expressed mRNA in the presence of chemical substance/absence: YJL037W (gene YJL037W) | level of expressed mRNA in the presence of chemical substance/in its absence (gene YJR148W) | The level of expressed mRNA in the presence of chemical substance/absence: YLR097C (gene YLR097C) | The level of expressed mRNA in the presence of chemical substance/absence: YMR114C (gene YMR114C) | The level of expressed mRNA in the presence of chemical substance/absence: YNL200C (gene YNL200C) | The level of expressed mRNA in the presence of chemical substance/absence: YNL253W (gene YNL253W)
2.1: level of expressed mRNA in the presence of chemical substance/in its absence (gene YJR159W) | level of expressed mRNA in the presence of chemical substance/in its absence (gene YNL104C) | level of expressed mRNA in the presence of chemical substance/in its absence (gene YNR002C) | level of expressed mRNA in the presence of chemical substance/in its absence (gene YNR019W) | The level of expressed mRNA in the presence of chemical substance/absence: YNR051C (gene YNR051C) | level of expressed mRNA in the presence of chemical substance/in its absence (gene YOR130C)
2.9: level of expressed mRNA in the presence of chemical substance/in its absence (gene YNL012W) | level of expressed mRNA in the presence of chemical substance/in its absence (gene YNL231C) | level of expressed mRNA in the presence of chemical substance/in its absence (gene YOL153C)
1.2: level of expressed mRNA in the presence of chemical substance/in its absence (gene YGR282C) | The level of expressed mRNA in the presence of chemical substance/absence: YHR134W (gene YHR134W) | level of expressed mRNA in the presence of chemical substance/in its absence (gene YIL167W) | The level of expressed mRNA in the presence of chemical substance/absence: YKL051W (gene YKL051W) | level of expressed mRNA in the presence of chemical substance/in its absence (gene YLR142W) | The level of expressed mRNA in the presence of chemical substance/absence: YLR338W (gene YLR338W) | The level of expressed mRNA in the presence of chemical substance/absence: YML013W (gene YML013W) | The level of expressed mRNA in the presence of chemical substance/absence: YML041C (gene YML041C) | level of expressed mRNA in the presence of chemical substance/in its absence (gene YMR272C) | The level of expressed mRNA in the presence of chemical substance/absence: YOL026C (gene YOL026C) | level of expressed mRNA in the presence of chemical substance/in its absence (gene YOL058W) | level of expressed mRNA in the presence of chemical substance/in its absence (gene YOL143C) | The level of expressed mRNA in the presence of chemical substance/absence: YOR087W (gene YOR087W)
2.4: level of expressed mRNA in the presence of chemical substance/in its absence (gene YNR059W)
1.0: The level of expressed mRNA in the presence of chemical substance/absence: YHL037C (gene YHL037C) | level of expressed mRNA in the presence of chemical substance/in its absence (gene YJL088W) | level of expressed mRNA in the presence of chemical substance/in its absence (gene YLR307W) | The level of expressed mRNA in the presence of chemical substance/absence: YLR415C (gene YLR415C)
2.6: The level of expressed mRNA in the presence of chemical substance/absence: YHL021C (gene YHL021C) | level of expressed mRNA in the presence of chemical substance/in its absence (gene YNL045W) | level of expressed mRNA in the presence of chemical substance/in its absence (gene YOL126C)
1.3: The level of expressed mRNA in the presence of chemical substance/absence: YHR180W (gene YHR180W) | The level of expressed mRNA in the presence of chemical substance/absence: YIL108W (gene YIL108W) | level of expressed mRNA in the presence of chemical substance/in its absence (gene YJL132W) | The level of expressed mRNA in the presence of chemical substance/absence: YKL059C (gene YKL059C) | The level of expressed mRNA in the presence of chemical substance/absence: YKL100C (gene YKL100C) | level of expressed mRNA in the presence of chemical substance/in its absence (gene YKR039W) | The level of expressed mRNA in the presence of chemical substance/absence: YMR071C (gene YMR071C) | The level of expressed mRNA in the presence of chemical substance/absence: YMR115W (gene YMR115W) | The level of expressed mRNA in the presence of chemical substance/absence: YNL212W (gene YNL212W)
3.8: level of expressed mRNA in the presence of chemical substance/in its absence (gene YNR033W)
3.6: level of expressed mRNA in the presence of chemical substance/in its absence (gene YMR271C)
0.6: level of expressed mRNA in the presence of chemical substance/in its absence (gene YHR137W) | level of expressed mRNA in the presence of chemical substance/in its absence (gene YJL196C) | The level of expressed mRNA in the presence of chemical substance/absence: YKR040C (gene YKR040C) | level of expressed mRNA in the presence of chemical substance/in its absence (gene YLR180W) | The level of expressed mRNA in the presence of chemical substance/absence: YNL058C (gene YNL058C) | The level of expressed mRNA in the presence of chemical substance/absence: YNL176C (gene YNL176C) | The level of expressed mRNA in the presence of chemical substance/absence: YNL191W (gene YNL191W)
0.8: The level of expressed mRNA in the presence of chemical substance/absence: YKL090W (gene YKL090W) | level of expressed mRNA in the presence of chemical substance/in its absence (gene YNL322C)
0.7: The level of expressed mRNA in the presence of chemical substance/absence: YGR293C (gene YGR293C) | The level of expressed mRNA in the presence of chemical substance/absence: YHR095W (gene YHR095W) | The level of expressed mRNA in the presence of chemical substance/absence: YHR181W (gene YHR181W) | The level of expressed mRNA in the presence of chemical substance/absence: YJL097W (gene YJL097W) | The level of expressed mRNA in the presence of chemical substance/absence: YJR030C (gene YJR030C) | The level of expressed mRNA in the presence of chemical substance/absence: YLR226W (gene YLR226W)
0.9: The level of expressed mRNA in the presence of chemical substance/absence: YJL049W (gene YJL049W) | The level of expressed mRNA in the presence of chemical substance/absence: YKL097C (gene YKL097C) | level of expressed mRNA in the presence of chemical substance/in its absence (gene YMR189W) | level of expressed mRNA in the presence of chemical substance/in its absence (gene YMR296C) | level of expressed mRNA in the presence of chemical substance/in its absence (gene YNL106C)
0.4: The level of expressed mRNA in the presence of chemical substance/absence: YIL127C (gene YIL127C) | The level of expressed mRNA in the presence of chemical substance/absence: YOR088W (gene YOR088W)
1.8: level of expressed mRNA in the presence of chemical substance/in its absence (gene YML110C) | The level of expressed mRNA in the presence of chemical substance/absence: YNL181W (gene YNL181W) | The level of expressed mRNA in the presence of chemical substance/absence: YOR138C (gene YOR138C)
1.5: The level of expressed mRNA in the presence of chemical substance/absence: YIL165C (gene YIL165C) | The level of expressed mRNA in the presence of chemical substance/absence: YJL017W (gene YJL017W) | The level of expressed mRNA in the presence of chemical substance/absence: YNL063W (gene YNL063W) | The level of expressed mRNA in the presence of chemical substance/absence: YNL194C (gene YNL194C) | The level of expressed mRNA in the presence of chemical substance/absence: YNL276C (gene YNL276C) | level of expressed mRNA in the presence of chemical substance/in its absence (gene YOR136W)
1.7: level of expressed mRNA in the presence of chemical substance/in its absence (gene YHR190W) | level of expressed mRNA in the presence of chemical substance/in its absence (gene YIL154C) | level of expressed mRNA in the presence of chemical substance/in its absence (gene YKL067W) | The level of expressed mRNA in the presence of chemical substance/absence: YKL094W (gene YKL094W) | level of expressed mRNA in the presence of chemical substance/in its absence (gene YLR273C) | The level of expressed mRNA in the presence of chemical substance/absence: YML118W (gene YML118W) | The level of expressed mRNA in the presence of chemical substance/absence: YNL026W (gene YNL026W) | level of expressed mRNA in the presence of chemical substance/in its absence (gene YNL169C) | The level of expressed mRNA in the presence of chemical substance/absence: YOL030W (gene YOL030W) | The level of expressed mRNA in the presence of chemical substance/absence: YOR022C (gene YOR022C)
0.5: level of expressed mRNA in the presence of chemical substance/in its absence (gene YHR092C) | The level of expressed mRNA in the presence of chemical substance/absence: YOR253W (gene YOR253W)
1.4: The level of expressed mRNA in the presence of chemical substance/absence: YHR105W (gene YHR105W) | The level of expressed mRNA in the presence of chemical substance/absence: YJL032W (gene YJL032W) | The level of expressed mRNA in the presence of chemical substance/absence: YLR392C (gene YLR392C) | The level of expressed mRNA in the presence of chemical substance/absence: YMR068W (gene YMR068W) | level of expressed mRNA in the presence of chemical substance/in its absence (gene YOL157C)
2.5: level of expressed mRNA in the presence of chemical substance/in its absence (gene YIL033C) | The level of expressed mRNA in the presence of chemical substance/absence: YLR427W (gene YLR427W)
0.1: The level of expressed mRNA in the presence of chemical substance/absence: YLR339C (gene YLR339C)
3.3: level of expressed mRNA in the presence of chemical substance/in its absence (gene YMR105C)
1.9: level of expressed mRNA in the presence of chemical substance/in its absence (gene YNL037C) | level of expressed mRNA in the presence of chemical substance/in its absence (gene YNL130C)
